Assay results reported in PubChem BioAssay AID328 (DTP/NCI, 2004).
Toxic doses and inconclusive results are not listed.

Tested on: BDF1 mice, P388 leukemia ip, median survival T/C
Assay: NCI In Vivo Anticancer Drug Screen. Data for tumor model P388 Leukemia (intraperitoneal) in B6D2F1 (BDF1) mice
Settings: endpoint: median survival time, higher = longer survival
Procedure, shortened: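 Mice carrying the transplantable tumour receive compound or vehicle. Survival is followed in each arm, and the treated measure is divided by the vehicle measure.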

[1] = dose: 50.0 mg/kg/injection, schedule: Q01DX009 (ip), vehicle: saline with Tween-80
[2] = dose: 100.0 mg/kg/injection, schedule: Q01DX009 (ip), vehicle: saline with Tween-80
[3] = dose: 200.0 mg/kg/injection, schedule: Q01DX009 (ip), vehicle: saline with Tween-80

CC1C(=O)OC2CCN3CC4OC4(COC(=O)C(C)(O)C1(C)O)C23 (centres undefined)
T/C (dose: 50.0 mg/kg/injection, schedule: Q01DX009 (ip), vehicle: Klucel (hydroxypropylcellulose) (HPC)): 95 % of control
T/C (dose: 100.0 mg/kg/injection, schedule: Q01DX009 (ip), vehicle: Klucel (hydroxypropylcellulose) (HPC)): 95 % of control
T/C (dose: 100.0 mg/kg/injection, schedule: Q04DX003 (ip), vehicle: saline sonified): 108 % of control
T/C (dose: 200.0 mg/kg/injection, schedule: Q01DX009 (ip), vehicle: Klucel (hydroxypropylcellulose) (HPC)): 100 % of control
T/C (dose: 400.0 mg/kg/injection, schedule: Q04DX003 (ip), vehicle: saline sonified): 95 % of control

C=C(C)C(=O)OC1CCCCC1
T/C (dose: 100.0 mg/kg/injection, schedule: Q01DX009 (ip), vehicle: saline): 111 % of control
T/C (dose: 200.0 mg/kg/injection, schedule: Q01DX009 (ip), vehicle: saline): 100 % of control
T/C (dose: 400.0 mg/kg/injection, schedule: Q01DX009 (ip), vehicle: saline): 117 % of control

S=P(S)(c1ccccc1)c1ccccc1
T/C (dose: 80.5 mg/kg/injection, schedule: Q01DX009 (ip), vehicle: saline): 90 % of control
T/C (dose: 106.26 mg/kg/injection, schedule: Q01DX009 (ip), vehicle: saline): 116 % of control
T/C (dose: 241.5 mg/kg/injection, schedule: Q01DX009 (ip), vehicle: saline): 95 % of control

CC1(C)OC2(C)CCC1C(=O)C2N1CCCCC1 (centres undefined)
T/C (dose: 50.0 mg/kg/injection, schedule: Q01DX005 (ip), vehicle: saline with Tween-80): 105 % of control
T/C (dose: 100.0 mg/kg/injection, schedule: Q01DX005 (ip), vehicle: saline with Tween-80): 95 % of control
T/C (dose: 200.0 mg/kg/injection, schedule: Q01DX005 (ip), vehicle: saline with Tween-80): 101 % of control

CCCCCCCCN(N)C12CC3CC(CC(C3)C1)C2
T/C (dose: 12.5 mg/kg/injection, schedule: Q01DX009 (ip), vehicle: saline): 116 % of control
T/C (dose: 12.5 mg/kg/injection, schedule: Q04DX003 (ip), vehicle: saline): 90 % of control
T/C (dose: 25.0 mg/kg/injection, schedule: Q01DX009 (ip), vehicle: saline): 119 % of control
T/C (dose: 25.0 mg/kg/injection, schedule: Q04DX003 (ip), vehicle: saline): 100 % of control
T/C (dose: 50.0 mg/kg/injection, schedule: Q04DX003 (ip), vehicle: saline): 94 % of control
T/C (dose: 100.0 mg/kg/injection, schedule: Q04DX003 (ip), vehicle: saline): 100 % of control

COC(=O)C1=C(C)N[C@@]2(C)[C@H](C(=O)OC)C[C@H]1C2(C(C)=O)C(C)=O
T/C [1]: 116 % of control
T/C [2]: 109 % of control
T/C [3]: 109 % of control

O=C1c2ccccc2-c2cc(-c3ccccc3)cc(-c3ccccc3)c21
T/C (dose: 100.0 mg/kg/injection, schedule: Q04DX003 (ip), vehicle: Klucel (hydroxypropylcellulose) (HPC)): 100 % of control
T/C (dose: 200.0 mg/kg/injection, schedule: Q04DX003 (ip), vehicle: Klucel (hydroxypropylcellulose) (HPC)): 100 % of control
T/C (dose: 400.0 mg/kg/injection, schedule: Q04DX003 (ip), vehicle: Klucel (hydroxypropylcellulose) (HPC)): 100 % of control

COC(=O)C12OCC34C(CC5C(C)=C(O)C(=O)CC5(C)C3C(O)C1O)OC(=O)C(OC(=O)/C=C(\C)C(C)(C)O)C24 (centres undefined)
T/C (dose: 0.2 mg/kg/injection, schedule: Q01DX009 (ip), vehicle: saline): 165 % of control
T/C (dose: 0.4 mg/kg/injection, schedule: Q01DX009 (ip), vehicle: saline): 165 % of control
T/C (dose: 0.8 mg/kg/injection, schedule: Q01DX009 (ip), vehicle: saline): 163 % of control
T/C (dose: 60.0 micrograms/kg/injection, schedule: Q01DX009 (ip), vehicle: saline + alcohol): 183 % of control
T/C (dose: 120.0 micrograms/kg/injection, schedule: Q01DX009 (ip), vehicle: saline + alcohol): 183 % of control
T/C (dose: 250.0 micrograms/kg/injection, schedule: Q01DX009 (ip), vehicle: saline + alcohol): 200 % of control
T/C (dose: 500.0 micrograms/kg/injection, schedule: Q01DX009 (ip), vehicle: saline + alcohol): 211 % of control
T/C (dose: 1000.0 micrograms/kg/injection, schedule: Q01DX009 (ip), vehicle: saline + alcohol): 238 % of control
T/C (dose: 2000.0 micrograms/kg/injection, schedule: Q01DX009 (ip), vehicle: saline + alcohol): 194 % of control

O=C1NC(=S)S/C1=C\c1ccncc1
T/C [1]: 113 % of control
T/C [2]: 106 % of control
T/C [3]: 106 % of control
T/C (dose: 400.0 mg/kg/injection, schedule: Q01DX009 (ip), vehicle: saline with Tween-80): 106 % of control
